Several values for one entry are separate records, joined by “and”; a condition that tells them apart may be missing. Equal values may be shown once.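 How tested: cells in 96-well plates exposed to compound for 48 hours at five concentrations. Here, GI50 denotes the concentration required for 50% inhibition of growth. TGI: total growth inhibition.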
Key:
Assay in all cases: NCI tumour cell line growth inhibition, 48 h
786-0 renal = tested on: 786-0 renal
HS 578T breast = tested on: HS 578T breast
K-562 leukemia = tested on: K-562 leukemia
MALME-3M melanoma = tested on: MALME-3M melanoma
NCI-H226 lung = tested on: NCI-H226 lung
NCI-H522 lung = tested on: NCI-H522 lung
OVCAR-8 ovarian = tested on: OVCAR-8 ovarian
RPMI-8226 leukemia = tested on: RPMI-8226 leukemia
SW-620 colon = tested on: SW-620 colon
UACC-257 melanoma = tested on: UACC-257 melanoma

Structure (SMILES)	TGI (786-0 renal)	TGI (HS 578T breast)	TGI (K-562 leukemia)	TGI (MALME-3M melanoma)	TGI (NCI-H226 lung)	TGI (NCI-H522 lung)	TGI (OVCAR-8 ovarian)	TGI (RPMI-8226 leukemia)	TGI (SW-620 colon)	TGI (UACC-257 melanoma)	GI50 (786-0 renal)	GI50 (HS 578T breast)	GI50 (K-562 leukemia)	GI50 (MALME-3M melanoma)	GI50 (NCI-H226 lung)	GI50 (NCI-H522 lung)	GI50 (OVCAR-8 ovarian)	GI50 (RPMI-8226 leukemia)	GI50 (SW-620 colon)	GI50 (UACC-257 melanoma)
CN(C)CCSCCO	> 100 µM	> 100 µM	> 100 µM	> 100 µM	> 100 µM	> 100 µM	> 100 µM	> 100 µM	> 100 µM	> 100 µM										
CCc1ccc2nccc(NCCCN(C)C)c2c1[N+](=O)[O-]	> 100 µM	> 100 µM	> 100 µM	> 100 µM	> 100 µM	> 100 µM	> 100 µM	> 100 µM	> 100 µM	81.3 µM										
COc1cccc(N=N/C(=N\NC(=O)c2cc(Br)ccc2O)c2ccc(N(CCC#N)CCC#N)cc2OC)c1	> 150 µg/mL	> 150 µg/mL	> 150 µg/mL	142 µg/mL	79.7 µg/mL	> 150 µg/mL	> 150 µg/mL	> 150 µg/mL	> 150 µg/mL	> 150 µg/mL	79.2 µg/mL	48.9 µg/mL	25.4 µg/mL	57.7 µg/mL	22 µg/mL	60.5 µg/mL	41.6 µg/mL	41.4 µg/mL	63.1 µg/mL	87.8 µg/mL
CNC1=C(C(=O)OC)SC(c2ccccc2)(c2ccccc2)SC1	> 100 µM	> 100 µM	> 100 µM		> 100 µM	> 100 µM	> 100 µM	39.7 µM	> 100 µM	> 100 µM	31.9 µM	28.1 µM	4.73 µM		> 100 µM	4.01 µM	24.9 µM	8.83 µM	15 µM	9.2 µM
Cc1cc(C)c(S(=O)(=O)N(CCc2cccc(Br)c2)Cc2ccc(-c3cccc(S(C)(=O)=O)c3)cc2)c(C)c1	> 100 µM	> 100 µM	> 100 µM	> 100 µM	> 100 µM	> 100 µM	> 100 µM	> 100 µM	> 100 µM		> 100 µM	> 100 µM	> 100 µM	> 100 µM	> 100 µM	> 100 µM	> 100 µM	> 100 µM	> 100 µM	
CCNNC(=O)[C@@H]1[C@H](c2cc(OC)c(OC)c(OC)c2)c2cc3c(cc2[C@H](O)[C@H]1CO)OCO3	> 100 µM	> 100 µM	> 100 µM	> 100 µM		0.833 µM	> 100 µM	> 100 µM	> 100 µM		0.495 µM	0.376 µM	0.349 µM	> 20.5 µM	0.311 µM	0.288 µM	0.692 µM	0.407 µM	0.396 µM	4.37 µM
C[C@@H](COCCC(=O)N1CCN(c2ncc(C(F)(F)F)cn2)CC1)Nc1cn[nH]c(=O)c1C(F)(F)F	> 100 µM	> 100 µM	> 100 µM	> 100 µM	> 100 µM	> 100 µM	> 100 µM	> 100 µM	> 100 µM	> 100 µM	59.1 µM	50.7 µM	36.9 µM	> 100 µM	> 56.2 µM	96.9 µM	32.7 µM	31.8 µM	3.84 µM	> 94.4 µM
C=C1C(=O)OC2/C=C(\CO)CC/C=C(\CO)CC(OC(=O)C(C)C)C12 (centres undefined)	20.2 µM	49 µM	> 24.2 µM	4.45 µM	34.2 µM	4.11 µM	45.7 µM	25.5 µM	22.9 µM	27 µM										
CCCCCCCCCCCCCCCCCCOc1ccccc1CC(=O)NCC[N+](C)(C)C	78.7 µM	> 100 µM	> 100 µM	94 µM	42.9 µM	8.24 µM	41.9 µM		40.8 µM	51.6 µM	3.57 µM	4.26 µM	3.2 µM	14.8 µM	4.4 µM	2.67 µM	5.79 µM		5.8 µM	23.6 µM
CCOC(=O)C(C(=O)OCC)C(=O)c1ccccc1C(=O)c1ccccc1	> 100 µM	> 100 µM	> 100 µM	> 100 µM	> 100 µM	> 100 µM			50.5 µM	> 100 µM										
CC(C)C[C@H](NC(=O)[C@@H](NC(=O)c1cccc(-c2ccccc2)n1)[C@@H](C)O)B(O)O		> 100 µM	30.8 µM	0.00838 µM and < 0.0196 µM	0.00538 µM and 0.0245 µM	0.00881 µM	> 51.6 µM	< 0.0108 µM	2.34 µM	0.0319 µM and 0.0213 µM	0.012 µM and 0.0147 µM	0.00404 µM and < 0.0107 µM	0.00649 µM and 0.019 µM	0.00297 µM	0.00219 µM and < 0.0116 µM	0.00302 µM	0.0261 µM and 0.0238 µM		0.00411 µM	0.00502 µM
N#Cc1nc2c(S(=O)(=O)c3ccccc3)c(N)n(Cc3ccc(Cl)cc3)c2nc1C#N	15.6 µM	23.4 µM	> 50 µM			> 50 µM	47.6 µM	> 50 µM	> 50 µM	> 50 µM	7.08 µM	7.08 µM	> 50 µM			7.18 µM	8.51 µM	14.1 µM	17 µM	33.1 µM
Nc1c(C(=O)N/N=C/c2ccc(-c3cc(Cl)c(Cl)cc3Cl)o2)cnn1-c1ccnc2c(C(F)(F)F)cccc12	> 100 µM	> 100 µM	> 100 µM	10.6 µM	> 100 µM	31.1 µM		> 100 µM	> 100 µM		3.96 µM	5.04 µM	3 µM	2.66 µM	5.62 µM	3.37 µM		3.25 µM	4.05 µM	
C=C1C(OC/C=C/COC2O[C@@H]3O[C@@]4(C)CC[C@H]5[C@H](C)CC[C@@H](C2=C)[C@@]35OO4)O[C@@H]2O[C@@]3(C)CC[C@H]4[C@H](C)CC[C@@H]1[C@@]24OO3 (some centres undefined)	18.7 µM	59.6 µM	> 67.3 µM	18.4 µM	33.5 µM	69.6 µM	> 36.6 µM	10.6 µM	23.6 µM	36 µM	0.578 µM	12.6 µM	0.0949 µM	0.301 µM	4.32 µM	5.17 µM	1.96 µM		0.0863 µM	4.96 µM
